Data: ChEMBL document CHEMBL2440076, “New triarylpyrazoles as broad-spectrum anticancer agents: design, synthesis, and biological evaluation” (Eur J Med Chem, 2013)

How the values were obtained:
Type in all cases: functional
HT-29 = assay: Growth inhibition of human HT-29 cells assessed as cell growth at 5X10'-9 M after 48 hrs by sulforhodamine B assay; conditions: HT-29, 48 h, read-out: Activity
KM12 [1] = assay: Growth inhibition of human KM12 cells assessed as cell growth at 5X10'-9 M after 48 hrs by sulforhodamine B assay; conditions: KM12, 48 h, read-out: Activity
SNB-19 = assay: Growth inhibition of human SNB19 cells assessed as cell growth at 5X10'-5 M after 48 hrs by sulforhodamine B assay; conditions: SNB-19, 48 h, read-out: Activity
SF-539 = assay: Growth inhibition of human SF539 cells assessed as cell growth at 5X10'-5 M after 48 hrs by sulforhodamine B assay; conditions: SF-539, 48 h, read-out: Activity
BT-549 = assay: Growth inhibition of human BT549 cells assessed as cell growth at 5X10'-6 M after 48 hrs by sulforhodamine B assay; conditions: BT-549, 48 h, read-out: Activity
786-0 [2] = assay: Growth inhibition of human 786-0 cells assessed as cell growth at 5X10'-6 M after 48 hrs by sulforhodamine B assay; conditions: 786-0, 48 h, read-out: Activity
UACC-257 [3] = assay: Growth inhibition of human UACC257 cells assessed as cell growth at 5X10'-6 M after 48 hrs by sulforhodamine B assay; conditions: UACC-257, 48 h, read-out: Activity
SR = assay: Growth inhibition of human SR cells assessed as cell growth at 5X10'-9 M after 48 hrs by sulforhodamine B assay; conditions: read-out: Activity
KM12 [4] = assay: Growth inhibition of human KM12 cells assessed as cell growth at 5X10'-6 M after 48 hrs by sulforhodamine B assay; conditions: KM12, 48 h, read-out: Activity
NCI-H460 = assay: Growth inhibition of human NCI-H460 cells assessed as cell growth at 5X10'-6 M after 48 hrs by sulforhodamine B assay; conditions: NCI-H460, 48 h, read-out: Activity
HOP-92 = assay: Growth inhibition of human HOP92 cells assessed as cell growth at 5X10'-6 M after 48 hrs by sulforhodamine B assay; conditions: HOP-92, 48 h, read-out: Activity
MOLT-4 = assay: Growth inhibition of human MOLT4 cells assessed as cell growth at 5X10'-6 M after 48 hrs by sulforhodamine B assay; conditions: MOLT-4, 48 h, read-out: Activity
MDA-MB-468 = assay: Growth inhibition of human MDA-MB-468 cells assessed as cell growth at 5X10'-7 M after 48 hrs by sulforhodamine B assay; conditions: MDA-MB-468, 48 h, read-out: Activity
MDA-MB-231 = assay: Growth inhibition of human MDA-MB-231 cells assessed as cell growth at 5X10'-7 M after 48 hrs by sulforhodamine B assay; conditions: MDA-MB-231, 48 h, read-out: Activity
CAKI-1 = assay: Growth inhibition of human CAKI-1 cells assessed as cell growth at 5X10'-7 M after 48 hrs by sulforhodamine B assay; conditions: CAKI-1, 48 h, read-out: Activity
IGROV-1 [5] = assay: Growth inhibition of human IGROV1 cells assessed as cell growth at 5X10'-7 M after 48 hrs by sulforhodamine B assay; conditions: IGROV-1, 48 h, read-out: Activity
SK-MEL-5 [6] = assay: Growth inhibition of human SK-MEL-5 cells assessed as cell growth at 5X10'-7 M after 48 hrs by sulforhodamine B assay; conditions: SK-MEL-5, 48 h, read-out: Activity
UACC-257 [7] = assay: Growth inhibition of human UACC257 cells assessed as cell growth at 5X10'-7 M after 48 hrs by sulforhodamine B assay; conditions: UACC-257, 48 h, read-out: Activity
MDA-MB-435 = assay: Growth inhibition of human MDA-MB-435 cells assessed as cell growth at 5X10'-7 M after 48 hrs by sulforhodamine B assay; conditions: MDA-MB-435, 48 h, read-out: Activity
SF-268 = assay: Growth inhibition of human SF268 cells assessed as cell growth at 5X10'-7 M after 48 hrs by sulforhodamine B assay; conditions: SF-268, 48 h, read-out: Activity
HCT-15 = assay: Growth inhibition of human HCT15 cells assessed as cell growth at 5X10'-7 M after 48 hrs by sulforhodamine B assay; conditions: HCT-15, 48 h, read-out: Activity
[8] = Growth inhibition of human HCC2998 cells assessed as cell growth at 5X10'-7 M after 48 hrs by sulforhodamine B assay; conditions: HCC 2998, 48 h, read-out: Activity
RXF 393 = assay: Growth inhibition of human RXF393 cells assessed as cell growth at 5X10'-8 M after 48 hrs by sulforhodamine B assay; conditions: RXF 393, 48 h, read-out: Activity
U-251 = assay: Growth inhibition of human U251 cells assessed as cell growth at 5X10'-8 M after 48 hrs by sulforhodamine B assay; conditions: U-251, 48 h, read-out: Activity
DU-145 = assay: Growth inhibition of human DU145 cells assessed as cell growth at 5X10'-5 M after 48 hrs by sulforhodamine B assay; conditions: DU-145, 48 h, read-out: Activity
SK-OV-3 = assay: Growth inhibition of human SKOV3 cells assessed as cell growth at 5X10'-5 M after 48 hrs by sulforhodamine B assay; conditions: SK-OV-3, 48 h, read-out: Activity
IGROV-1 [9] = assay: Growth inhibition of human IGROV1 cells assessed as cell growth at 5X10'-5 M after 48 hrs by sulforhodamine B assay; conditions: IGROV-1, 48 h, read-out: Activity
SK-MEL-5 [10] = assay: Growth inhibition of human SK-MEL-5 cells assessed as cell growth at 5X10'-5 M after 48 hrs by sulforhodamine B assay; conditions: SK-MEL-5, 48 h, read-out: Activity
A549 = assay: Growth inhibition of human A549/ATCC cells assessed as cell growth at 5X10'-8 M after 48 hrs by sulforhodamine B assay; conditions: A549, 48 h, read-out: Activity
786-0 [11] = assay: Growth inhibition of human 786-0 cells assessed as cell growth at 5X10'-9 M after 48 hrs by sulforhodamine B assay; conditions: 786-0, 48 h, read-out: Activity
OVCAR-5 = assay: Growth inhibition of human OVCAR5 cells assessed as cell growth at 5X10'-9 M after 48 hrs by sulforhodamine B assay; conditions: OVCAR-5, 48 h, read-out: Activity
OVCAR-4 = assay: Growth inhibition of human OVCAR4 cells assessed as cell growth at 5X10'-9 M after 48 hrs by sulforhodamine B assay; conditions: OVCAR-4, 48 h, read-out: Activity
LOX IMVI = assay: Growth inhibition of human LOXIMVI cells assessed as cell growth at 5X10'-9 M after 48 hrs by sulforhodamine B assay; conditions: read-out: Activity
SF-295 = assay: Growth inhibition of human SF295 cells assessed as cell growth at 5X10'-9 M after 48 hrs by sulforhodamine B assay; conditions: SF-295, 48 h, read-out: Activity
SW-620 = assay: Growth inhibition of human SW620 cells assessed as cell growth at 5X10'-9 M after 48 hrs by sulforhodamine B assay; conditions: SW-620, 48 h, read-out: Activity

| Structure (SMILES) | growth at 0.005 µM (HT-29) [%] | growth at 0.005 µM (KM12 [1]) [%] | growth at 50 µM (SNB-19) [%] | growth at 50 µM (SF-539) [%] | growth at 5 µM (BT-549) [%] | growth at 5 µM (786-0 [2]) [%] | growth at 5 µM (UACC-257 [3]) [%] | growth at 0.005 µM (SR) [%] | growth at 5 µM (KM12 [4]) [%] | growth at 5 µM (NCI-H460) [%] | growth at 5 µM (HOP-92) [%] | growth at 5 µM (MOLT-4) [%] | growth at 0.5 µM (MDA-MB-468) [%] | growth at 0.5 µM (MDA-MB-231) [%] | growth at 0.5 µM (CAKI-1) [%] | growth at 0.5 µM (IGROV-1 [5]) [%] | growth at 0.5 µM (SK-MEL-5 [6]) [%] | growth at 0.5 µM (UACC-257 [7]) [%] | growth at 0.5 µM (MDA-MB-435) [%] | growth at 0.5 µM (SF-268) [%] | also measured |
| --- | --- | --- | --- | --- | --- | --- | --- | --- | --- | --- | --- | --- | --- | --- | --- | --- | --- | --- | --- | --- | --- |
| COc1cc(-c2nn(-c3cccc(NC(=O)Nc4cc(C(F)(F)F)cc(C(F)(F)F)c4)c3)cc2-c2ccncc2)ccc1Cl | 110 | 103 | -40 | -78 | -27 | -60 | -40 | 102 | -71 | -41 | -52 | -4 | 41 | 69 | 80 | 76 | 74 | 82 | 85 | 87 | growth at 0.5 µM (HCT-15): 61%; growth at 0.5 µM [8]: 95%; growth at 0.05 µM (RXF 393): 92%; growth at 0.05 µM (U-251): 94%; growth at 50 µM (DU-145): -80%; growth at 50 µM (SK-OV-3): -62%; growth at 50 µM (IGROV-1 [9]): -54%; growth at 50 µM (SK-MEL-5 [10]): -93%; growth at 0.05 µM (A549): 95%; growth at 0.005 µM (786-0 [11]): 100%; growth at 0.005 µM (OVCAR-5): 87%; growth at 0.005 µM (OVCAR-4): 95%; growth at 0.005 µM (LOX IMVI): 101%; growth at 0.005 µM (SF-295): 90%; growth at 0.005 µM (SW-620): 98% |
| O=C(Nc1cccc(-n2cc(-c3ccncc3)c(-c3ccc(Cl)c(O)c3)n2)c1)Nc1cc(C(F)(F)F)cc(C(F)(F)F)c1 | 110 | 105 | -47 | -96 | -65 | -23 | -35 | 102 | -60 | -51 | -38 | -5 | 37 | 74 | 74 | 71 | 62 | 84 | 79 | 73 | growth at 0.5 µM (HCT-15): 49%; growth at 0.5 µM [8]: 92%; growth at 0.05 µM (RXF 393): 89%; growth at 0.05 µM (U-251): 93%; growth at 50 µM (DU-145): -97%; growth at 50 µM (SK-OV-3): -49%; growth at 50 µM (IGROV-1 [9]): -55%; growth at 50 µM (SK-MEL-5 [10]): -94%; growth at 0.05 µM (A549): 94%; growth at 0.005 µM (786-0 [11]): 100%; growth at 0.005 µM (OVCAR-5): 96%; growth at 0.005 µM (OVCAR-4): 95%; growth at 0.005 µM (LOX IMVI): 98%; growth at 0.005 µM (SF-295): 92%; growth at 0.005 µM (SW-620): 99% |
| COc1cc(-c2nn(-c3cccc(NC(=O)Nc4ccc(Cl)c(Cl)c4)c3)cc2-c2ccncc2)ccc1Cl | 102 | 103 | 15 | -37 | 8 | -5 | -22 | 99 | -24 | 4 | -40 | -4 | 55 | 66 | 84 | 90 | 78 | 83 | 84 | 89 | growth at 0.5 µM (HCT-15): 76%; growth at 0.5 µM [8]: 97%; growth at 0.05 µM (RXF 393): 94%; growth at 0.05 µM (U-251): 93%; growth at 50 µM (DU-145): -1%; growth at 50 µM (SK-OV-3): 6%; growth at 50 µM (IGROV-1 [9]): -26%; growth at 50 µM (SK-MEL-5 [10]): -90%; growth at 0.05 µM (A549): 92%; growth at 0.005 µM (786-0 [11]): 100%; growth at 0.005 µM (OVCAR-5): 93%; growth at 0.005 µM (OVCAR-4): 96%; growth at 0.005 µM (LOX IMVI): 97%; growth at 0.005 µM (SF-295): 93%; growth at 0.005 µM (SW-620): 97% |
